The values below come from patent publication US12201633B2, “Compounds and methods for treatment of visceral pain” (Arena Pharmaceuticals, Inc., priority 2017, dated 2025).

Structures are written as SMILES.

The subject of experiment [1] is male Sprague Dawley rats, MIA model of osteoarthritis. Nature of the experiment: Monosodium iodoacetate (MIA) model of osteoarthritis pain. It counts as in vivo, rat. The conditions noted are these: 3, 10 and 30 mg/kg orally, one hour after dosing, vehicle PEG400; FIG. 2. The source says:
Injection of monosodium iodoacetate (MIA) into a joint (Kalbhen, 1987) inhibits the activity of glyceraldehyde-3-phosphate dehydrogenase in chondrocytes, resulting in disruption of glycolysis and eventually in cell death. The progressive loss of chondrocytes results in histological and morphological changes of the articular cartilage, closely resembling those seen in osteoarthritis patients.
The osteoarthritis was induced in 200 g male Sprague Dawley rats. […]
Typically, during disease progression, there was an inflammation period of 0-7 days post-intra-articular injection followed by progressive degeneration of the cartilage and subchondral bone from days 14-55. […] Tactile allodynia was measured via von Frey assay, hind limb paw weight distribution was monitored using an incapacitence tester (Columbus Instruments, Columbus, OH, USA) and hind limb grip strength was measured using a grip strength meter (Columbus Instruments, Columbus, OH, USA). […] Hind paw weight distribution was determined by placing rats in a chamber so that each hind paw rests on a separate force plate of the incapacitence tester. The force exerted by each hind limb (measured in grams) is averaged over a 3 second period. Three measurements were taken for each rat, and the change in hind paw weight distribution calculated. […]

The subject of experiment [2] is male Sprague Dawley rats, FCA-induced hyperalgesia. The experiment can be described thus: FCA-induced hyperalgesia model of inflammatory pain. It counts as in vivo, rat. The conditions noted are these: 0.1, 1, 3, 10 and 30 mg/kg orally, 1-hour post dosing, vehicle PEG400; FIG. 1. On the procedure:
Animal info: Male Sprague Dawley rats from Harlan (200-225 g when received) were used. Upon arrival, rats were housed 4 per cage in shoe-box polycarbonate cages with wire tops, wood chip bedding and suspended food and water bottles. Animals were acclimated for 5-7 days prior to being injected with Freund's complete adjuvant (FCA) (Sigma; catalog #5881).
Experimental procedure: 2 days (48 h) before testing compounds, baseline readings of all rats were taken right before FCA injection. Rats were then injected with 50 μL FCA containing 1 mg/mL Mtb (Mycobacterium tuberculosis) in right hind footpad under inhalation anesthesia (isoflurane). 48 hours after FCA injection, readings were taken as pre-dosing baseline and then rats were dosed orally with 0.5 mL of vehicle or compound (0.5 mL per 250 g rat). Readings were taken again at 1-hour post dosing. All readings were taken with an Analgesy-Meter (Ugo Basile) which measures mechanical hyperalgesia via paw pressure.
Clinical scoring: FCA-induced hyperalgesia was tested with an Analgesy-Meter. Briefly, the Analgesy Meter applied an increasing pressure to the right hind paw. The paw withdrawal threshold was the pressure leading to withdrawal.
Meanwhile a group of rats were dosed orally with 50 mg/kg of Diclofenac as a positive control. Readings were taken again at 1-hour post dosing. Dosing volume was 500 μL per 250 g rat.

The test system of experiment [3] is male Sprague Dawley rats, paclitaxel-induced allodynia. Nature of the experiment: Paclitaxel-induced allodynia. The experiment is classed as in vivo, rat. The conditions noted are these: 10 mg/kg orally, FIG. 3. The protocol: Animals: Male Sprague Dawley rats [200-250 g] (Harlan Laboratories Inc., Livermore, CA) were housed three per cage and maintained in a humidity-controlled (40-60%) and temperature-controlled (68-72° F.) facility on a 12 h:12 h light/dark cycle (lights on at 6:30 am) with free access to food (Harlan Teklad, Orange, CA, Rodent Diet 8604) and water. Rats were allowed one week of habituation to the animal facility before starting treatment.
Induction of Allodynia: Rats were treated intraperitoneally, with 2 mg/kg of paclitaxel (Sigma Aldrich, Saint Louis, MO) in 10% Cremophor vehicle (500 μL) on days 0, 2, 4, and 6.
Clinical scoring: Tactile allodynia was tested using von Frey filaments. Briefly, the von Frey assay was performed using the standardized up down method with von Frey filaments, that determine the tactile sensitivity of the paw. By applying the increasingly or decreasingly thicker filaments to the paw in a logarithmic scale of actual force, a linear scale of perceived intensity is determined.
Drug treatment: Eight days after the start of paclitaxel dosing, a baseline measurement (von Frey assay) was performed prior to dosing of compounds. […] As a positive control, rats were dosed intraperitoneally with 100 mg/kg gabapentin in water. The dosing volume for oral and peritoneal treatment was 500 μL. […]

Experiment [4] deals with T1, human CB2 receptor (Homo sapiens, UniProt P34972). Nature of the experiment: PathHunter β-arrestin assay, CB2.
T1 sequence (P34972 whole entry): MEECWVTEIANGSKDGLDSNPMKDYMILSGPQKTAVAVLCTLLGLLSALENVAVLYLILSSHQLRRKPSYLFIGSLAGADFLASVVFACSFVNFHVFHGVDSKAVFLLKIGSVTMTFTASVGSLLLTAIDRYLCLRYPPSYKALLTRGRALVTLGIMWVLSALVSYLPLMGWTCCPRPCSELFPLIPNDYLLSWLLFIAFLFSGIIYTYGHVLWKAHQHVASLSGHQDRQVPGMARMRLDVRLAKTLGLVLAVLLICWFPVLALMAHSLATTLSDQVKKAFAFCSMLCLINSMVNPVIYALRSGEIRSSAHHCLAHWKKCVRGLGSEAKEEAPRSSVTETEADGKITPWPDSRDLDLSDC
Experiment [5] deals with T2, hCB1 (Homo sapiens, UniProt P21554). The experiment can be described thus: PathHunter β-arrestin assay, CB1.
T2 sequence (P21554 whole entry): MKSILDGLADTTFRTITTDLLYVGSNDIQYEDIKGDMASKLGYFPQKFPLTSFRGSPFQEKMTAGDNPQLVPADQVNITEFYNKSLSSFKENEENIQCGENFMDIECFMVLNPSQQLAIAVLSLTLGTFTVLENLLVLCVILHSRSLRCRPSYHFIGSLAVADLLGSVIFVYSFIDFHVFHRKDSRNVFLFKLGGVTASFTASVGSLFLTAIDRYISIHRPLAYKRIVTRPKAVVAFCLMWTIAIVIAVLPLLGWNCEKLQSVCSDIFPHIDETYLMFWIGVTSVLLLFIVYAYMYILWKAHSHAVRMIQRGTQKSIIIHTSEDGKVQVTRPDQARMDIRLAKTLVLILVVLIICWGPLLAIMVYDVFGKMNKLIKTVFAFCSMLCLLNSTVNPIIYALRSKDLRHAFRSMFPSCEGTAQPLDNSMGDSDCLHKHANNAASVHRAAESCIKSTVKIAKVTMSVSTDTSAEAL
Experiment [6] addresses T2, hCB1. The experiment can be described thus: HTRF assay for direct cAMP measurement, CB1. It counts as cell-based. Also on record: 93-0164 (CHO-K1 EA-Arrestin parental line); host or cells: CHO-K1 EA-Arrestin, clone #3.
From the text: Compounds were also screened for agonists and inverse agonists of the CB1 receptor (e.g., human CB1 receptor) using HTRF® assay for direct cAMP measurement (Gabriel et al., ASSAY and Drug Development Technologies, 1:291-303, 2003) in recombinant CHO-K1 cells stably transfected with the CB1 receptor. […] An agonist of the CB1 receptor was detected in the HTRF® assay for direct cAMP measurement as a compound which decreased cAMP concentration. An inverse agonist of the CB1 receptor was detected in the HTRF® assay for direct cAMP measurement as a compound which increased cAMP concentration. The HTRF® assay also was used to determine EC50 values for CB1 receptor agonists and inverse agonists.
Principle of the assay: The HTRF® assay kit was purchased from Cisbio-US, Inc. (Bedford, MA; Catalog #62AM4PEC). The HTRF® assay supported by the kit is a competitive immunoassay between endogenous cAMP produced by the CHO-K1 cells and tracer cAMP labeled with the dye d2. The tracer binding is visualized by a monoclonal anti-cAMP antibody labeled with Cryptate. The specific signal (i.e., fluorescence resonance energy transfer, FRET) is inversely proportional to the concentration of unlabeled cAMP in the standard or sample.
The fluorescence ratio of the samples (test compound or compound buffer) was calculated and used to deduce respective cAMP concentrations by reference to the cAMP standard curve. […]
Experiment [7] deals with T1, human CB2 receptor. The experiment can be described thus: HTRF assay for direct cAMP measurement, CB2. The experiment is classed as cell-based. Also on record: 93-0164 (CHO-K1 EA-Arrestin parental line); host or cells: CHO-K1 EA-Arrestin, clone #61.
Experiment [8] deals with male Sprague-Dawley rats, STZ-induced PDPN. The experiment can be described thus: Streptozotocin-induced painful diabetic peripheral neuropathy (PDPN) model. The experiment is classed as in vivo, rat. The conditions noted are these: 10 mg/kg orally in 0.5% methylcellulose; 1, 4 and 6 hours post-dosing; FIG. 9, FIG. 10. The protocol:
Male Sprague-Dawley rats were injected intraperitoneally with 50 mg/kg of streptozotocin (STZ) in sodium citrate buffer. 10% sucrose water was provided ad libitum for the first 48 hours post-STZ followed by regular drinking water. Rats were monitored once weekly for blood glucose levels and body weights. Development of tactile allodynia over time was analyzed using Von Frey filaments and a 50% withdrawal threshold was determined using Dixon's up-down procedure. […] Tactile allodynia was evaluated at 1, 4 and 6 hours post-dosing.

Experiment [9] deals with T2, hCB1. Nature of the experiment: Radioligand binding assay, hCB1. The conditions noted are these: Table C.
Experiment [10] concerns rats following ligation of spinal nerves. The conditions noted are these: cited from earlier work.
The subject of experiment [11] is acute and chronic pain from chemical, mechanical, and thermal pain stimuli. The conditions noted are these: animal studies; cited from earlier work.

As to `CC(C)(CO)NC(=O)c1nn(-c2ccc(F)cc2F)c2c1C[C@H]1C[C@@H]21` [Compound 493, (1aR,5aR)-2-(2,4-Difluoro-phenyl)-1a,2,5,5a-tetrahydro-1H-2,3-diaza-cyclopropa[a]pentalene-4-carboxylic acid (2-hydroxy-1,1-dimethyl-ethyl)-amide], the “Paw withdrawal threshold (PWT) in comparison with vehicle” value in [1] is listed as “Increase in paw withdrawal threshold (PWT)”. Besides, in experiment [2], the “Paw withdrawal threshold (PWT) in comparison with the vehicle” value is reported as “increase in paw withdrawal threshold (PWT)”. In experiment [3], the “Time of maximum efficacy post-dosing” value came out at 1 h. Moreover, the “Paw withdrawal threshold (PWT) in comparison with vehicle and gabapentin” value in [3] (von Frey 30, 60 and 180 minutes after dosing) is reported as “increase in paw withdrawal threshold (PWT)”.

Turning to `CNC(=O)[C@@H](NC(=O)c1nn(-c2cnccn2)c2c1C[C@H]1C[C@@H]21)C(C)(C)C` [Compound 667, (1aR,5aR)-2-Pyrazin-2-yl-1a,2,5,5a-tetrahydro-1H-2,3-diaza-cyclopropa[a]pentalene-4-carboxylic acid [2,2-dimethyl-1-((S)-methylcarbamoyl)-propyl]-amide], the EC50 on human CB2 receptor [4] worked out at 1.53 nM; at hCB1 [5], 145 nM; on hCB1 [6], 195 nM; on human CB2 receptor [7], 0.3 nM.

`CC(C)(NC(=O)c1nn(-c2c[n+]([O-])ccn2)c2c1C[C@@H]1C[C@H]21)C(F)(F)F` [Compound 919, (1aS,5aS)-2-(4-Oxy-pyrazin-2-yl)-1a,2,5,5a-tetrahydro-1H-2,3-diaza-cyclopropa[a]pentalene-4-carboxylic acid (2,2,2-trifluoro-1,1-dimethyl-ethyl)-amide]: in experiment [8], the “Analgesic efficacy (tactile allodynia, 50% withdrawal threshold)” value is “robust and sustained analgesic efficacy over 6 hours”. The EC50 amounted to 2.35 nM on human CB2 receptor [4] and 0.2 nM at human CB2 receptor [7].

As to `CNC(=O)[C@@H](NC(=O)c1nn(-c2c[n+]([O-])ccn2)c2c1C[C@H]1C[C@@H]21)C(C)(C)C` [Compound 704, (1aR,5aR)-2-(4-Oxy-pyrazin-2-yl)-1a,2,5,5a-tetrahydro-1H-2,3-diaza-cyclopropa[a]pentalene-4-carboxylic acid ((S)-2,2-dimethyl-1-methylcarbamoyl-propyl)-amide], the EC50 on human CB2 receptor [4] was determined as 0.8 nM; at hCB1 [5] it was 228 nM; at human CB2 receptor [7], 0.2 nM.

In the case of `CNC(=O)[C@@H](NC(=O)c1nn(-c2c[n+]([O-])ccn2)c2c1C[C@@H]1C[C@H]21)C(C)(C)C` [Compound 701, (1aS,5aS)-2-(4-Oxy-pyrazin-2-yl)-1a,2,5,5a-tetrahydro-1H-2,3-diaza-cyclopropa[a]pentalene-4-carboxylic acid ((S)-2,2-dimethyl-1-methylcarbamoyl-propyl)-amide], affinity on hCB1 [9] was put at a Ki of 105 nM.

As for `COc1ccc2c(c1)c(CCN1CCOCC1)c(C)n2C(=O)c1cccc(Cl)c1Cl` [GW405833], in [10] (administered systemically), the “Hypersensitivity to mechanical stimuli” value is on record as “significantly reverses hypersensitivity to mechanical stimuli”.

Regarding `CCCCCCC(C)(C)c1ccc([C@@H]2C[C@H](O)CC[C@H]2CCCO)c(O)c1` [CP55,940], the “Efficacy against acute and chronic pain” value in experiment [11] is “effective against acute and chronic pain”.

Turning to `CCCCCc1cc(O)c2c(c1)OC(C)(C)[C@@H]1CCC(C)=C[C@@H]21` [THC], the “Efficacy against acute and chronic pain” value in [11] was “effective against acute and chronic pain”.

For the compound `COc1ccc(C(=O)c2c(C)n(CCN3CCOCC3)c3cc(I)ccc23)cc1` [AM630], the “Effect on the reversal of hypersensitivity by AM1241” value in experiment [10] is listed as “inhibited”.

For `CC(C)(CO)NC(=O)c1nn(-c2ccc(Cl)cn2)c2c1C[C@H]1C[C@@H]21` [Compound 151, (1aR,5aR)-2-(5-Chloro-pyridin-2-yl)-1a,2,5,5a-tetrahydro-1H-2,3-diaza-cyclopropa[a]pentalene-4-carboxylic acid (2-hydroxy-1,1-dimethyl-ethyl)-amide], the EC50 amounted to 92.1 nM on human CB2 receptor [4], 72500 nM at hCB1 [6] and 3.83 nM at human CB2 receptor [7].

On to `CCCCC/C=C\C/C=C\C/C=C\C/C=C\CCCC(=O)NCCO` [anandamide], for which the “Efficacy against acute and chronic pain” value in experiment [11] was “effective against acute and chronic pain”.

For `Cc1c(C(=O)c2cccc3ccccc23)c2cccc3c2n1[C@H](CN1CCOCC1)CO3` [WIN 55212-2], the “Efficacy against acute and chronic pain” value in experiment [11] was “effective against acute and chronic pain”.

With `CC(C)(CO)NC(=O)c1nn(-c2cc(C#N)ccn2)c2c1C[C@H]1C[C@@H]21` [Compound 644, (1aR,5aR)-2-(4-Cyano-pyridin-2-yl)-1a,2,5,5a-tetrahydro-1H-2,3-diaza-cyclopropa[a]pentalene-4-carboxylic acid (2-hydroxy-1,1-dimethyl-ethyl)-amide], the EC50 at human CB2 receptor [4] amounted to 4.69 nM; at hCB1 [5], 4470 nM; on human CB2 receptor [7], 0.7 nM.

In the case of `O=C(N[C@H](CO)C1CCOCC1)c1nn(-c2c[n+]([O-])ccn2)c2c1C[C@H]1C[C@@H]21` [Compound 841, (1aR,5aR)-2-(4-Oxy-pyrazin-2-yl)-1a,2,5,5a-tetrahydro-1H-2,3-diaza-cyclopropa[a]pentalene-4-carboxylic acid [(S)-2-hydroxy-1-(tetrahydro-pyran-4-yl)-ethyl]-amide], the EC50 at human CB2 receptor [4] came to 17.5 nM; at hCB1 [5], 1140 nM; at human CB2 receptor [7], 1.4 nM.
